Experimental data from patent US6479435B1, “Diaryl ethers and processes for their preparation and herbicidal and desiccant compositions containing them” (ISK Americas Incorporated, priority 1997, dated 2002).

Experiments:
Assay type in all cases: in vivo
[1] = system: upland rice (Oryza sp., var.Tebonnet, RICE); assay: Pre-emerge greenhouse test, crop damage rating; conditions: 14 days after application, rating scale 0-100
Outline: (§1)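 Visual 0–100 injury rating (100 = all plants dead) taken 14 days after treatment. Rates of 125–1000 g ai/ha in acetone, 187 l/ha, were sprayed onto soil one day post-sowing; pots were surface-watered to incorporate, then bottom-watered.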

[2] = system: field corn (Zea mays L., var. Dekalb 535, CORN); assay: Pre-emerge greenhouse test, crop damage rating; conditions: 14 days after application, rating scale 0-100
Outline: as §1

[3] = system: barnyardgrass (Echinochloa crusgalli, ECHCG); assay: Pre-emerge greenhouse herbicide test, phytotoxicity rating; conditions: 14 days after application, rating scale 0-100
Outline: as §1

[4] = system: velvetleaf (Abutilon theophrasti, ABUTH); assay: as above; conditions: 14 days after application, rating scale 0-100
Outline: as §1

[5] = system: redroot pigweed (Amaranthus retroflexus, AMARE); assay: as above; conditions: 14 days after application, rating scale 0-100
Outline: as §1

[6] = system: large crabgrass (Digitaria sanguinalis, DIGSA); assay: as above; conditions: 14 days after application, rating scale 0-100
Outline: as §1

[7] = system: sicklepod (Cassia obtusifolia, CASOB); assay: as above; conditions: 14 days after application, rating scale 0-100
Outline: as §1

[8] = system: lambsquarters (Chenopodium album, CHEAL); assay: as above; conditions: 14 days after application, rating scale 0-100
Outline: as §1

[9] = system: common ragweed (Ambrosia artemisiifolia L., AMBEL); assay: as above; conditions: 14 days after application, rating scale 0-100
Outline: as §1

[10] = system: ivyleaf morningglory (Ipomoea hederacea, IPOHE); assay: as above; conditions: 14 days after application, rating scale 0-100
Outline: as §1

[11] = system: Johnsongrass (Sorghum halepense, SORHA); assay: as above; conditions: 14 days after application, rating scale 0-100
Outline: as §1

[12] = system: green foxtail (Setaria viridis, SETVI); assay: as above; conditions: 14 days after application, rating scale 0-100
Outline: as §1

[13] = system: soybean (Glycine max L., var. Pella 86, SOY); assay: Post-emerge greenhouse test, crop damage rating; conditions: 14 days after application
Outline: (§2)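 Scores use a 0 (no damage) to 100 (complete kill) scale, taken 14 days after a foliar spray. Acetone solutions with 0.25% v/v non-ionic surfactant were applied by track sprayer at 187 l/ha and 63-1000 g ai/ha to bottom-watered 2-3 leaf plants.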

[14] = system: upland rice (Oryza sp., var.Tebonnet, RICE); assay: Post-emerge greenhouse test, crop damage rating; conditions: 14 days after application
Outline: as §2

[15] = system: field corn (Zea mays L., var. Dekalb 535, CORN); assay: Post-emerge greenhouse test, crop damage rating; conditions: 14 days after application
Outline: as §2

[16] = system: barnyardgrass (Echinochloa crusgalli, ECHCG); assay: Post-emerge greenhouse herbicide test, phytotoxicity rating; conditions: 14 days after application
Outline: as §2

[17] = system: velvetleaf (Abutilon theophrasti, ABUTH); assay: as above; conditions: 14 days after application
Outline: as §2

[18] = system: redroot pigweed (Amaranthus retroflexus, AMARE); assay: as above; conditions: 14 days after application
Outline: as §2

[19] = system: large crabgrass (Digitaria sanguinalis, DIGSA); assay: as above; conditions: 14 days after application
Outline: as §2

[20] = system: lambsquarters (Chenopodium album, CHEAL); assay: as above; conditions: 14 days after application
Outline: as §2

[21] = system: ivyleaf morningglory (Ipomoea hederacea, IPOHE); assay: as above; conditions: 14 days after application
Outline: as §2

[22] = system: Johnsongrass (Sorghum halepense, SORHA); assay: as above; conditions: 14 days after application
Outline: as §2

[23] = system: green foxtail (Setaria viridis, SETVI); assay: as above; conditions: 14 days after application
Outline: as §2

[24] = system: soybean (Glycine max L., var. Pella 86, SOY); assay: Pre-emerge greenhouse test, crop damage rating; conditions: 14 days after application, rating scale 0-100
Outline: as §1

[25] = system: common ragweed (Ambrosia artemisiifolia L., AMBEL); assay: Post-emerge greenhouse herbicide test, phytotoxicity rating; conditions: 14 days after application
Outline: as §2

Cn1nc(-c2cc(Oc3cccc(F)n3)c(Cl)cc2F)c(Cl)c1C(F)(F)F [Compound 1-5]
crop damage rating RICE ([1]; 125 g ai/ha): 30 | crop damage rating RICE ([1]; 500 g ai/ha): 20 | crop damage rating CORN ([2]; 125 g ai/ha): 20 | crop damage rating CORN ([2]; 500 g ai/ha): 30 | phytotoxicity rating ECHCG ([3]; 125 g ai/ha): 50 | phytotoxicity rating ECHCG ([3]; 500 g ai/ha): 90 | phytotoxicity rating ABUTH ([4]; 125 g ai/ha): 70 | phytotoxicity rating ABUTH ([4]; 500 g ai/ha): 90 | phytotoxicity rating AMARE ([5]; 125 g ai/ha): 100 | phytotoxicity rating AMARE ([5]; 500 g ai/ha): 100 | phytotoxicity rating DIGSA ([6]; 125 g ai/ha): 100 | phytotoxicity rating DIGSA ([6]; 500 g ai/ha): 90 | phytotoxicity rating CASOB ([7]; 125 g ai/ha): 50 | phytotoxicity rating CASOB ([7]; 500 g ai/ha): 100 | phytotoxicity rating CHEAL ([8]; 125 g ai/ha): 100 | phytotoxicity rating CHEAL ([8]; 500 g ai/ha): 100 | phytotoxicity rating AMBEL ([9]; 125 g ai/ha): 50 | phytotoxicity rating AMBEL ([9]; 500 g ai/ha): 90 | phytotoxicity rating IPOHE ([10]; 125 g ai/ha): 30 | phytotoxicity rating IPOHE ([10]; 500 g ai/ha): 70 | phytotoxicity rating SORHA ([11]; 125 g ai/ha): 50 | phytotoxicity rating SORHA ([11]; 500 g ai/ha): 95 | phytotoxicity rating SETVI ([12]; 125 g ai/ha): 100 | phytotoxicity rating SETVI ([12]; 500 g ai/ha): 100 | SOY crop damage rating (0-100) ([13]; 63 g al/ha): 40 | SOY crop damage rating (0-100) ([13]; 500 g al/ha): 90 | RICE crop damage rating (0-100) ([14]; 63 g al/ha): 40 | RICE crop damage rating (0-100) ([14]; 500 g al/ha): 80 | CORN crop damage rating (0-100) ([15]; 63 g al/ha): 10 | CORN crop damage rating (0-100) ([15]; 500 g al/ha): 30 | ECHCG phytotoxicity rating (0-100) ([16]; 63 g al/ha): 30 | ECHCG phytotoxicity rating (0-100) ([16]; 500 g al/ha): 100 | ABUTH phytotoxicity rating (0-100) ([17]; 63 g al/ha): 30 | ABUTH phytotoxicity rating (0-100) ([17]; 500 g al/ha): 100 | AMARE phytotoxicity rating (0-100) ([18]; 63 g al/ha): 100 | AMARE phytotoxicity rating (0-100) ([18]; 500 g al/ha): 100 | DIGSA phytotoxicity rating (0-100) ([19]; 63 g al/ha): 50 | DIGSA phytotoxicity rating (0-100) ([19]; 500 g al/ha): 99 | CHEAL phytotoxicity rating (0-100) ([20]; 63 g al/ha): 95 | CHEAL phytotoxicity rating (0-100) ([20]; 500 g al/ha): 100 | IPOHE phytotoxicity rating (0-100) ([21]; 63 g al/ha): 95 | IPOHE phytotoxicity rating (0-100) ([21]; 500 g al/ha): 100 | SORHA phytotoxicity rating (0-100) ([22]; 63 g al/ha): 30 | SORHA phytotoxicity rating (0-100) ([22]; 500 g al/ha): 95 | SETVI phytotoxicity rating (0-100) ([23]; 63 g al/ha): 0 | SETVI phytotoxicity rating (0-100) ([23]; 500 g al/ha): 100 | crop damage rating SOY ([24]; 125 g ai/ha): 0 | crop damage rating SOY ([24]; 500 g ai/ha): 0 | AMBEL phytotoxicity rating (0-100) ([25]; 63 g al/ha): 30 | AMBEL phytotoxicity rating (0-100) ([25]; 500 g al/ha): 90

O=c1n(CCCF)nnn1-c1cc(Oc2ncccc2[N+](=O)[O-])c(Cl)cc1Cl [Compound 6-3]
crop damage rating RICE ([1]; 125 g ai/ha): 20 | crop damage rating RICE ([1]; 500 g ai/ha): 20 | crop damage rating CORN ([2]; 125 g ai/ha): 30 | crop damage rating CORN ([2]; 500 g ai/ha): 10 | phytotoxicity rating ECHCG ([3]; 125 g ai/ha): 60 | phytotoxicity rating ECHCG ([3]; 500 g ai/ha): 0 | phytotoxicity rating ABUTH ([4]; 125 g ai/ha): 40 | phytotoxicity rating ABUTH ([4]; 500 g ai/ha): 30 | phytotoxicity rating AMARE ([5]; 125 g ai/ha): 0 | phytotoxicity rating AMARE ([5]; 500 g ai/ha): 90 | phytotoxicity rating DIGSA ([6]; 125 g ai/ha): 10 | phytotoxicity rating DIGSA ([6]; 500 g ai/ha): 50 | phytotoxicity rating CASOB ([7]; 125 g ai/ha): 30 | phytotoxicity rating CASOB ([7]; 500 g ai/ha): 40 | phytotoxicity rating CHEAL ([8]; 125 g ai/ha): 0 | phytotoxicity rating CHEAL ([8]; 500 g ai/ha): 90 | phytotoxicity rating AMBEL ([9]; 125 g ai/ha): 100 | phytotoxicity rating AMBEL ([9]; 500 g ai/ha): 40 | phytotoxicity rating IPOHE ([10]; 125 g ai/ha): 0 | phytotoxicity rating IPOHE ([10]; 500 g ai/ha): 20 | phytotoxicity rating SORHA ([11]; 125 g ai/ha): 30 | phytotoxicity rating SORHA ([11]; 500 g ai/ha): 0 | phytotoxicity rating SETVI ([12]; 125 g ai/ha): 99 | phytotoxicity rating SETVI ([12]; 500 g ai/ha): 70 | SOY crop damage rating (0-100) ([13]; 63 g al/ha): 0 | SOY crop damage rating (0-100) ([13]; 500 g al/ha): 30 | RICE crop damage rating (0-100) ([14]; 63 g al/ha): 0 | RICE crop damage rating (0-100) ([14]; 500 g al/ha): 40 | CORN crop damage rating (0-100) ([15]; 63 g al/ha): 0 | CORN crop damage rating (0-100) ([15]; 500 g al/ha): 0 | ECHCG phytotoxicity rating (0-100) ([16]; 63 g al/ha): 0 | ECHCG phytotoxicity rating (0-100) ([16]; 500 g al/ha): 20 | ABUTH phytotoxicity rating (0-100) ([17]; 63 g al/ha): 0 | ABUTH phytotoxicity rating (0-100) ([17]; 500 g al/ha): 20 | AMARE phytotoxicity rating (0-100) ([18]; 63 g al/ha): 20 | AMARE phytotoxicity rating (0-100) ([18]; 500 g al/ha): 80 | DIGSA phytotoxicity rating (0-100) ([19]; 63 g al/ha): 0 | DIGSA phytotoxicity rating (0-100) ([19]; 500 g al/ha): 0 | CHEAL phytotoxicity rating (0-100) ([20]; 63 g al/ha): 0 | CHEAL phytotoxicity rating (0-100) ([20]; 500 g al/ha): 80 | IPOHE phytotoxicity rating (0-100) ([21]; 63 g al/ha): 20 | IPOHE phytotoxicity rating (0-100) ([21]; 500 g al/ha): 70 | SORHA phytotoxicity rating (0-100) ([22]; 63 g al/ha): 0 | SORHA phytotoxicity rating (0-100) ([22]; 500 g al/ha): 30 | SETVI phytotoxicity rating (0-100) ([23]; 63 g al/ha): 0 | SETVI phytotoxicity rating (0-100) ([23]; 500 g al/ha): 30 | crop damage rating SOY ([24]; 125 g ai/ha): 0 | crop damage rating SOY ([24]; 500 g ai/ha): 0 | AMBEL phytotoxicity rating (0-100) ([25]; 63 g al/ha): 0 | AMBEL phytotoxicity rating (0-100) ([25]; 500 g al/ha): 0
